According to patent US10947215B2, “Heteroaryl compounds and their use as therapeutic drugs” (Dong-A Socio Holdings Co., Ltd., priority 2015, dated 2021):

These compounds were tested on Ba/F3-CDM cells (Ba/F3 transfected with CD8-MerTK) (assay: In cell MER kinase assay, Ba/F3-CDM cell proliferation without IL-3 (Celltiter-Glo, GI50)). Conditions: 48 hours, read-out: Cell growth inhibition (GI50).
Type: cell-based, murine
Summary of the method: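 Ba/F3 cells expressing CD8-MerTK were grown without IL-3, so that proliferation depends on MerTK. Cells were pre-incubated 24 h, then exposed to compound for 48 h. Viability was read by CellTiter-Glo, with IL-3-supplemented Ba/F3 run in parallel as a nonspecific cytotoxicity control, and GI50 was derived.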

SMILES	GI50
CN1CCN(Cc2ccc(-c3ccc(CO[C@H]4CCC[C@@H]4NC(=O)c4cc(-c5ccc(CN6CCN(C)CC6)cc5)cnc4N)cc3)cc2)CC1 [Example 368, 2-amino-N-((1S,2S)-2-((4′-((4-methylpiperazin-1-yl)methyl)-[1,1′-biphenyl]-4-yl)methoxy)cyclopentyl)-5-(4-((4-methylpiperazin-1-yl)methyl)phenyl)nicotinamide]	< 100 nM
Cn1cc(-c2cnc(N)c(C(=O)N[C@H]3CNC[C@@H]3OCc3ccc(-c4ccc(C(C)(C)N5CCN(CCO)CC5)cc4)cc3)c2)cn1 [Example 440]	> 1000 nM
COc1ccc(-c2cnc(N)c(C(=O)N[C@H]3CCC[C@@H]3OCc3ccc(-c4ccc(CN5CCN(C)CC5)cc4)cc3)c2)cc1 [Example 376, 2-amino-5-(4-methoxyphenyl)-N-((1S,2S)-2-((4′-((4-methyl-piperazin-1-yl)methyl)-[1,1′-biphenyl]-4-yl)methoxy)cyclopentyl)nicotinamide]	< 100 nM
CN1CCN(Cc2ccc(-c3ccc(CO[C@H]4COC[C@@H]4NC(=O)c4cc(-c5cnn(C)c5)cnc4N)cc3)cc2C(F)(F)F)CC1 [Example 449, 2-amino-5-(1-methyl-1H-pyrazol-4-yl)-N-((3S,4R)-4-((4′-((4-methylpiperazin-1-yl)methyl)-3′-(trifluoromethyl)-[1,1′-biphenyl]-4-yl)methoxy)-tetrahydrofuran-3-yl)nicotinamide]	< 100 nM
CC(c1ccc(-c2ccc(CO[C@H]3CCC[C@@H]3NC(=O)c3cc(-c4ccc(F)nc4)cnc3N)cc2)cc1)N1CCN(CCO)CC1 (stereo partly drawn) [Example 237, 6-amino-6′-fluoro-N-((1S,2S)-2-((4′-(1-(4-(2-hydroxyethyl)-piperazin-1-yl)ethyl)-[1,1′-biphenyl]-4-yl)methoxy)cyclopentyl)-[3,3′-bipyridine]-5-carboxamide]	< 100 nM
Cn1cc(-c2cnc(N)c(C(=O)N[C@H]3CCC[C@@H]3OCc3ccc(-c4ccc(CN5CCN(CCO)CC5)cc4)cc3)c2)cn1 [Example 181, 2-amino-N-((1S,2S)-2-((4′-((4-(2-hydroxyethyl)piperazin-1-yl)-methyl)-[1,1′-biphenyl]-4-yl)methoxy)cyclopentyl)-5-(1-methyl-1H-pyrazol-4-yl)-nicotinamide]	< 100 nM
CN1CCN(Cc2ccc(-c3ccc(CO[C@H]4CCC[C@@H]4NC(=O)c4cc(-c5ccccc5)cnc4N)cc3)cc2)CC1 [Example 371, 2-amino-N-((1S,2S)-2-((4′-((4-methylpiperazin-1-yl)methyl)-[1,1′-biphenyl]-4-yl)methoxy)cyclopentyl)-5-phenyl nicotinamide]	< 100 nM
CN1CCN(Cc2ccc(-c3ccc(CO[C@H]4CCC[C@@H]4NC(=O)c4cc(-c5ccc(F)c(F)c5)cnc4N)cc3)cc2)CC1 [Example 364]	< 100 nM
CCc1cc(CO[C@H]2CCC[C@@H]2NC(=O)c2cc(-c3cnn(C)c3)cnc2N)ccc1C [Example 21]	> 1000 nM
C[C@H](c1ccc(-c2ccc(CO[C@H]3CCC[C@@H]3NC(=O)c3cc(-c4ccc(F)nc4)cnc3N)cc2)cc1)N1CCN(CCO)CC1 [Example 227, 6-amino-6′-fluoro-N-((1S,2S)-2-((4′-((R)-1-(4-(2-hydroxyethyl)-piperazin-1-yl)ethyl)-[1,1′-biphenyl]-4-yl)methoxy)cyclopentyl)-[3,3′-bipyridine]-5-carboxamide]	< 100 nM
CCc1cc(CO[C@H]2CCC[C@@H]2NC(=O)c2cc(-c3ccc(C(C)(C)N4CCN(CCO)CC4)cc3)cnc2N)ccc1C [Example 360, 2-amino-N-((1S,2S)-2-((3-ethyl-4-methylbenzyl)oxy)cyclopentyl)-5-(4-(2-(4-(2-hydroxyethyl)piperazin-1-yl)propan-2-yl)phenyl)nicotinamide]	> 1000 nM

Results, then the compound that gave them:

GI50	SMILES
< 100 nM	C[C@@H](c1ccc(-c2ccc(CO[C@H]3CCC[C@@H]3NC(=O)c3cc(-c4cnn(C)c4)cnc3N)cc2)cc1)N1CCN(C)CC1 [Example 215]
< 100 nM	CN1CCN(Cc2ccc(-c3ccc(CO[C@H]4CCC[C@@H]4NC(=O)c4cc(-c5cnn(C(F)(F)C(F)F)c5)cnc4N)cc3)cc2)CC1 [Example 387, 2-amino-N-((1S,2S)-2-((4′-((4-methylpiperazin-1-yl)methyl)-[1,1′-biphenyl]-4-yl)methoxy)cyclopentyl)-5-(1-(1,1,2,2-tetrafluoroethyl)-1H-pyrazol-4-yl)-nicotinamide]
< 100 nM	Cn1cc(-c2cnc(N)c(C(=O)N[C@H]3COC[C@@H]3OCc3ccc(-c4ccc(CN5CCN(CCO)CC5)cc4)cc3)c2)cn1 [Example 451, 2-amino-N-((3S,4R)-4-((4′-((4-(2-hydroxyethyl)piperazin-1-yl)methyl)-[1,1′-biphenyl]-4-yl)methoxy)tetrahydrofuran-3-yl)-5-(1-methyl-1H-pyrazol-4-yl)nicotinamide]
< 100 nM	CCC1CN(Cc2ccc(-c3ccc(CO[C@H]4CCC[C@@H]4NC(=O)c4cc(-c5cnn(C)c5)cnc4N)cc3)cc2)CCN1C (stereo partly drawn) [Example 188, 2-amino-N-((1S,2S)-2-((4′-((3-ethyl-4-methylpiperazin-1-yl)-methyl)-[1,1′-biphenyl]-4-yl)methoxy)cyclopentyl)-5-(1-methyl-1H-pyrazol-4-yl)-nicotinamide]
> 1000 nM	Cn1cc(-c2cnc(N)c(C(=O)N[C@H]3CNC[C@@H]3OCc3ccc(-c4ccc(CN5CCN(CCO)CC5)cc4)cc3)c2)cn1 [Example 446, 2-amino-N-((3S,4S)-4-((4′-((4-(2-hydroxyethyl)piperazin-1-yl)-methyl)-[1,1′-biphenyl]-4-yl)methoxy)pyrrolidin-3-yl)-5-(1-methyl-1H-pyrazol-4-yl)-nicotinamide]
< 100 nM	Cn1cc(-c2cnc(N)c(C(=O)N[C@H]3CCC[C@@H]3OCc3ccc(-c4ccc(CN5CCN(C6CC6)CC5)cc4)cc3)c2)cn1 [Example 184, 2-amino-N-((1S,2S)-2-((4′-((4-cyclopropylpiperazin-1-yl)methyl)-[1,1′-biphenyl]-4-yl)methoxy)cyclopentyl)-5-(1-methyl-1H-pyrazol-4-yl)nicotinamide]
< 100 nM	Cn1cc(-c2cnc(N)c(C(=O)N[C@H]3CCC[C@@H]3OCc3ccc(-c4ccc(CC5CCN(CCO)CC5)cc4)cc3)c2)cn1 [Example 240, 2-amino-N-((1S,2S)-2-((4′-((1-(2-hydroxyethyl)piperidin-4-yl)-methyl)-[1,1′-biphenyl]-4-yl)methoxy)cyclopentyl)-5-(1-methyl-1H-pyrazol-4-yl)-nicotinamide]
< 100 nM	CC(c1ccc(-c2ccc(CO[C@H]3CCC[C@@H]3NC(=O)c3cc(-c4cncc(F)c4)cnc3N)cc2)cc1)N1CCN(C)CC1 (stereo partly drawn) [Example 230, 6-amino-5′-fluoro-N-((1S,2S)-2-((4′-(1-(4-methylpiperazin-1-yl)ethyl)-[1,1′-biphenyl]-4-yl)methoxy)cyclopentyl)-[3,3′-bipyridine]-5-carboxamide]
< 100 nM	CN1CCN(Cc2ccc(-c3ccc(CO[C@H]4CCC[C@@H]4NC(=O)c4cc(-c5ccc(O)cc5)cnc4N)cc3)cc2)CC1 [Example 372, 2-amino-5-(4-hydroxyphenyl)-N-((1S,2S)-2-((4′-((4-methyl-piperazin-1-yl)methyl)-[1,1′-biphenyl]-4-yl)methoxy)cyclopentyl)nicotinamide]
< 100 nM	COc1ccc(-c2cnc(N)c(C(=O)N[C@H]3CCC[C@@H]3OCc3ccc(-c4ccc(CN5CCN(C)CC5)cc4)cc3)c2)cc1OC [Example 383, 2-amino-5-(3,4-dimethoxyphenyl)-N-((1S,2S)-2-((4′-((4-methyl-piperazin-1-yl)methyl)-[1,1′-biphenyl]-4-yl)methoxy)cyclopentyl)nicotinamide]
